# Test results from PubChem BioAssay (NCI).
#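 Cultured in 96-well plates, cells were exposed to test compound for 48 hours across five concentrations. TGI denotes the concentration required for complete inhibition of growth.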
# Tests used:
# Experiment in all cases: NCI anticancer screen, dose series, 48 h
# SF-268 CNS = tested on: SF-268 CNS
# OVCAR-3 ovarian = tested on: OVCAR-3 ovarian
# HS 578T breast = tested on: HS 578T breast
# MOLT-4 leukemia = tested on: MOLT-4 leukemia
# SF-295 CNS = tested on: SF-295 CNS
# NCI/ADR-RES ovarian = tested on: NCI/ADR-RES ovarian
# MDA-MB-435 = tested on: MDA-MB-435
# SNB-19 CNS = tested on: SNB-19 CNS
# NCI-H522 lung = tested on: NCI-H522 lung
# MALME-3M melanoma = tested on: MALME-3M melanoma
# CCRF-CEM leukemia = tested on: CCRF-CEM leukemia
# T-47D breast = tested on: T-47D breast
# MDA-MB-231 breast = tested on: MDA-MB-231 breast
# HCT-15 colon = tested on: HCT-15 colon
# HOP-62 NSCLC = tested on: HOP-62 NSCLC
# HCT-116 colon = tested on: HCT-116 colon
# OVCAR-5 ovarian = tested on: OVCAR-5 ovarian
# SK-MEL-5 melanoma = tested on: SK-MEL-5 melanoma
# OVCAR-8 ovarian = tested on: OVCAR-8 ovarian
# MCF7 breast = tested on: MCF7 breast
# HT29 colon = tested on: HT29 colon
# IGROV1 ovarian = tested on: IGROV1 ovarian
# SW-620 colon = tested on: SW-620 colon
# NCI-H23 lung = tested on: NCI-H23 lung
# KM12 colon = tested on: KM12 colon
# A549 NSCLC = tested on: A549 NSCLC
# UACC-62 melanoma = tested on: UACC-62 melanoma
# DU-145 prostate = tested on: DU-145 prostate
# SN12C renal = tested on: SN12C renal
# M14 melanoma = tested on: M14 melanoma
# RXF 393 renal = tested on: RXF 393 renal
# UACC-257 melanoma = tested on: UACC-257 melanoma
# BT-549 breast = tested on: BT-549 breast
# PC-3 prostate = tested on: PC-3 prostate
# COLO 205 colon = tested on: COLO 205 colon
# MDA-N = tested on: MDA-N
# NCI-H226 lung = tested on: NCI-H226 lung
# SK-MEL-2 melanoma = tested on: SK-MEL-2 melanoma
# UO-31 renal = tested on: UO-31 renal
# U251 CNS = tested on: U251 CNS
# SF-539 CNS = tested on: SF-539 CNS
# SK-MEL-28 melanoma = tested on: SK-MEL-28 melanoma
# EKVX NSCLC = tested on: EKVX NSCLC
# LOX IMVI melanoma = tested on: LOX IMVI melanoma
# ACHN renal = tested on: ACHN renal
# HOP-92 NSCLC = tested on: HOP-92 NSCLC
# NCI-H460 lung = tested on: NCI-H460 lung
# TK-10 renal = tested on: TK-10 renal
# SK-OV-3 ovarian = tested on: SK-OV-3 ovarian
# OVCAR-4 ovarian = tested on: OVCAR-4 ovarian
# HCC-2998 colon = tested on: HCC-2998 colon
# CAKI-1 renal = tested on: CAKI-1 renal
# SR leukemia = tested on: SR leukemia
# 786-0 renal = tested on: 786-0 renal
# HL-60(TB) leukemia = tested on: HL-60(TB) leukemia
# A498 renal = tested on: A498 renal
# SNB-75 CNS = tested on: SNB-75 CNS
# RPMI-8226 leukemia = tested on: RPMI-8226 leukemia
# K-562 leukemia = tested on: K-562 leukemia
structure (smiles),measurement,setting,value
C=C1CC(OC(C)=O)/C=C(/C)CCC(C(C)(C)O)CC1O (centres undefined),TGI,SF-268 CNS,> 100 µM
same,TGI,OVCAR-3 ovarian,> 100 µM
same,TGI,HS 578T breast,> 100 µM
same,TGI,MOLT-4 leukemia,> 100 µM
same,TGI,SF-295 CNS,> 100 µM
same,TGI,NCI/ADR-RES ovarian,> 100 µM
same,TGI,MDA-MB-435,> 100 µM
same,TGI,SNB-19 CNS,> 100 µM
same,TGI,NCI-H522 lung,> 100 µM
same,TGI,MALME-3M melanoma,> 100 µM
same,TGI,CCRF-CEM leukemia,> 100 µM
same,TGI,T-47D breast,> 100 µM
same,TGI,MDA-MB-231 breast,> 100 µM
same,TGI,HCT-15 colon,> 100 µM
same,TGI,HOP-62 NSCLC,> 100 µM
same,TGI,HCT-116 colon,> 100 µM
same,TGI,OVCAR-5 ovarian,> 100 µM
same,TGI,SK-MEL-5 melanoma,> 100 µM
same,TGI,OVCAR-8 ovarian,> 100 µM
same,TGI,MCF7 breast,> 100 µM
same,TGI,HT29 colon,> 100 µM
same,TGI,IGROV1 ovarian,> 100 µM
same,TGI,SW-620 colon,> 100 µM
same,TGI,NCI-H23 lung,> 100 µM
same,TGI,KM12 colon,> 100 µM
same,TGI,A549 NSCLC,> 100 µM
same,TGI,UACC-62 melanoma,> 100 µM
same,TGI,DU-145 prostate,> 100 µM
same,TGI,SN12C renal,> 100 µM
same,TGI,M14 melanoma,> 100 µM
same,TGI,RXF 393 renal,> 100 µM
same,TGI,UACC-257 melanoma,> 100 µM
same,TGI,BT-549 breast,> 100 µM
same,TGI,PC-3 prostate,> 100 µM
same,TGI,COLO 205 colon,> 100 µM
same,TGI,MDA-N,> 100 µM
same,TGI,NCI-H226 lung,> 100 µM
same,TGI,SK-MEL-2 melanoma,> 100 µM
same,TGI,UO-31 renal,> 100 µM
same,TGI,U251 CNS,> 100 µM
same,TGI,SF-539 CNS,> 100 µM
same,TGI,SK-MEL-28 melanoma,> 100 µM
same,TGI,EKVX NSCLC,> 100 µM
same,TGI,LOX IMVI melanoma,> 100 µM
same,TGI,ACHN renal,> 100 µM
same,TGI,HOP-92 NSCLC,> 100 µM
same,TGI,NCI-H460 lung,> 100 µM
same,TGI,TK-10 renal,> 100 µM
same,TGI,SK-OV-3 ovarian,> 100 µM
same,TGI,OVCAR-4 ovarian,> 100 µM
same,TGI,HCC-2998 colon,> 100 µM
same,TGI,CAKI-1 renal,> 100 µM
same,TGI,SR leukemia,> 100 µM
same,TGI,786-0 renal,> 100 µM
same,TGI,HL-60(TB) leukemia,> 100 µM
same,TGI,A498 renal,> 100 µM
NS(=O)(=O)c1ccc(NNC(=O)c2cccc3c(=O)c4ccccc4[nH]c23)cc1,TGI,SF-268 CNS,> 100 µM
same,TGI,OVCAR-3 ovarian,> 100 µM
same,TGI,HS 578T breast,> 100 µM
same,TGI,MOLT-4 leukemia,> 100 µM
same,TGI,SF-295 CNS,> 100 µM
same,TGI,NCI/ADR-RES ovarian,> 100 µM
same,TGI,MDA-MB-435,> 100 µM
same,TGI,SNB-19 CNS,> 100 µM
same,TGI,NCI-H522 lung,> 100 µM
same,TGI,MALME-3M melanoma,> 100 µM
same,TGI,CCRF-CEM leukemia,> 100 µM
same,TGI,T-47D breast,> 100 µM
same,TGI,MDA-MB-231 breast,> 100 µM
same,TGI,HCT-15 colon,> 100 µM
same,TGI,HOP-62 NSCLC,> 100 µM
same,TGI,HCT-116 colon,> 100 µM
same,TGI,OVCAR-5 ovarian,> 100 µM
same,TGI,SK-MEL-5 melanoma,> 100 µM
same,TGI,OVCAR-8 ovarian,> 100 µM
same,TGI,MCF7 breast,> 100 µM
same,TGI,HT29 colon,> 100 µM
same,TGI,IGROV1 ovarian,> 100 µM
same,TGI,SW-620 colon,> 100 µM
same,TGI,NCI-H23 lung,> 100 µM
same,TGI,KM12 colon,> 100 µM
same,TGI,A549 NSCLC,> 100 µM
same,TGI,UACC-62 melanoma,> 100 µM
same,TGI,DU-145 prostate,> 100 µM
same,TGI,SN12C renal,> 100 µM
same,TGI,M14 melanoma,> 100 µM
same,TGI,SNB-75 CNS,> 100 µM
same,TGI,RXF 393 renal,> 100 µM
same,TGI,UACC-257 melanoma,> 100 µM
same,TGI,BT-549 breast,> 100 µM
same,TGI,PC-3 prostate,> 100 µM
same,TGI,COLO 205 colon,> 100 µM
same,TGI,RPMI-8226 leukemia,> 100 µM
same,TGI,MDA-N,> 100 µM
same,TGI,NCI-H226 lung,> 100 µM
same,TGI,SK-MEL-2 melanoma,> 100 µM
same,TGI,UO-31 renal,> 100 µM
same,TGI,U251 CNS,> 100 µM
same,TGI,SF-539 CNS,> 100 µM
same,TGI,SK-MEL-28 melanoma,> 100 µM
same,TGI,EKVX NSCLC,> 100 µM
same,TGI,LOX IMVI melanoma,89 µM
same,TGI,ACHN renal,> 100 µM
same,TGI,HOP-92 NSCLC,> 100 µM
same,TGI,NCI-H460 lung,> 100 µM
same,TGI,TK-10 renal,> 100 µM
same,TGI,SK-OV-3 ovarian,> 100 µM
same,TGI,OVCAR-4 ovarian,> 100 µM
same,TGI,HCC-2998 colon,> 100 µM
same,TGI,CAKI-1 renal,> 100 µM
same,TGI,K-562 leukemia,> 100 µM
same,TGI,SR leukemia,> 100 µM
same,TGI,786-0 renal,> 100 µM
same,TGI,HL-60(TB) leukemia,> 100 µM
